Source: patent US4496591A, “Insecticidal bis-carbamate sulfides” (priority 1981, dated 1985)

How the values were obtained:
Type in all cases: in vivo
[1] = system: house flies (Musca domestica, L.); assay: Fly bait test; set-up: key: A: excellent control; B: partial control; C: no control at 500 ppm; conditions: 500 parts per million, sugar bait, twenty-four hours
Protocol: (§1) Suspensions of the test compounds were prepared by dissolving one gram of compound in 50 milliliters of acetone in which had been dissolved 0.1 gram (10 percent of the weight of compound) of an alkylphenoxy polyethoxyethanol surfactant, as an emulsifying or dispersing agent. The resulting solution was mixed into 150 milliliters of water to give roughly 200 milliliters of a suspension containing the compound in finely divided form. The thus-prepared stock suspension contained 0.5 percent by weight of compound. The concentrations in parts per million by weight employed in the tests described hereinbelow were obtained by appropriate dilutions of the stock suspension with water. The test procedures were as follows:
Four to six day old adult house flies (Musca domestica, L.), reared according to the specifications of the Chemical Specialties Manufacturing Association (Blue Book, McNair-Dorland Co., N.Y. 1954; pages 243-244, 261) under controlled conditions of 80±5° F. and 50±5 percent relative humidity, were the test insects. The flies were immobilized by anesthetizing them with carbon dioxide. Twenty-five immobilized individuals, males and females, were transferred to a cage consisting of a standard food strainer about five inches in diameter which was inverted over a wrapping-paper-covered surface. The test compounds were formulated by diluting the stock suspension with a 10 percent (by weight) sugar solution to give a suspension containing 500 parts of test compound per million parts of final formulation, by weight. Ten milliliters of the test formulation were added to a souffle cup containing a one-inch square of an absorbent cotton pad. This bait cup was introduced and centered on the blotting paper under the food strainer prior to admitting the anesthetized flies. The caged flies were allowed to feed on the bait for twenty-four hours, at a temperature of 80±5° F. and at a relative humidity of 50±5 percent.
(§2) In these tests the pesticidal activity of the compounds at the indicated dosage rate against aphid, Southern Armyworm, Bean Beetle and housefly was rated as follows: […]

[2] = system: housefly adults (Musca domestica); assay: Comparative residual effect in soil
Protocol: Selected species of the new compounds were evaluated for their residual pesticidal activity in soil. […] The residual activity test were conducted using five to seven-day old housefly adults (Musca domestica).
The soil mixture used was one part agricultural soil and three parts sand. The agricultural soil was stored in plastic bags in a freezer, immediately after removal from the field. This was done to reduce microbial multiplication. Two weeks prior to use, the soil was thawed and held at room temperature to allow microbial population to equilibrate. The sand and soil were sifted to remove clumps and debris and were then blended by rolling on a roller mill in a closed metal container. The moisture level was adjusted to 15% by weight.
The concentration in the soil of the compound to be tested was four times the amount (in parts per million) necessary to achieve a mortality rate of 50% on contact with the soil (LD50). This is in accordance with the procedure developed by C. R. Harris of the Research Institute, Canadian Department of Agriculture, London, Ontario. Such procedure is disclosed in "Biological Activity of Chloropyrifos, Chlorpyrifor-Methyl, Phorate, and Counter® in Soil", The Canadian Entomologist, Vol. 109, pp. 1115-1120 (August 1977); and in "Laboratory Studies on the Persistance of Biological Activity of Some Insecticides in Soils", Journal of Economic Entomology, Vol. 62, No. 6, pp. 1437-1441 (December 1969).
An appropriate amount of compound was dissolved in an acetone--Triton solution and was diluted with water. Five mililiters of the formulated chemical was applied to four ounces of soil mixture and rolled in a 16-ounce glass jar to blend the compound evenly with the soil. Ten mililiters of granular cane sugar was then mixed thoroughly with the treated soil in an eight-ounce plastic container.
Twenty-five housefly adults, anesthetized with CO2, were then transferred to the soil and were covered with a perforated plastic lid. The test containers were held for 24 hours in a constant environment at a temperature of 80±5° F. and a relative humidity of […]. Mortality was based on the ability of the fly to move in a normal manner without spinning.
The above process was repeated on treated soil which had been incubated at 25° C. and 90% relative humidity for 1, 4, 6 and 8 weeks after initial exposure. This was necessary because the soil is incubated without sugar, sugar being added at the time of reinfestation. For this reason, appropriate volumes of soil had to be treated at the start of the soil test to last for the expected residual period.

[3] = system: bean aphid (Aphis fabae Scop.); assay: Bean aphid foliage spray test; set-up: key: A: excellent control; B: partial control; C: no control at 500 ppm; conditions: 500 parts per million, 24 hour
Protocol: as §1
Adults and nymphal stages of the bean aphid (Aphis fabae Scop.) reared on potted dwarf nasturtium plants at 68°-70° F. and 50±5 percent relative humidity, constituted the test insects. For testing purposes, the number of aphids per pot were standardized to 100-150 by trimming plants containing excess aphids.
The test compounds were formulated by diluting the stock suspension with water to give a suspension containing 500 parts of test compound per million parts of final formulation.
The potted plants (one pot per compound tested) infested with 100-150 aphids, were placed on a revolving turntable and sprayed with 100-110 milliliters of test compound formulation by use of a DeVilbiss spray gun set at 40 psig. air pressure. This application, which lasted 25 seconds, was sufficient to wet the plants to run-off. As a control, 100-110 milliliters of a water-acetone-emulsifier solution containing no test compound was also sprayed on infested plants. After spraying, the pots were placed on their sides on a sheet of white standard mimeograph paper which had been previously ruled to facilitate counting. Temperature and humidity in the test room during the 24 hour holding period were 68°-70° F. and 50±5 percent, respectively. Aphids which fell onto the paper and were unable to remain standing after being uprighted were considered dead. Aphids remaining on the plants were observed closely for movement and those which were unable to move the length of the body upon stimulation by prodding were considered dead.
as §2

## CSC(C)=NOC(=O)N(C)SN(C)C(=O)Oc1cccc(C=O)c1 [Compound 3]
[1]
  Housefly, pesticidal activity rating: A
[2]; 0 weeks, soil concentration four times LD50, housefly, 24 hours
  Residual effect in soil (mortality), 0 weeks: 100
[2]; 1 week, soil concentration four times LD50, 25° C., 90% relative humidity, 10080 min
  Residual effect in soil (mortality), 1 week: 100
[2]; 4 weeks, soil concentration four times LD50, 25° C., 90% relative humidity, 40320 min
  Residual effect in soil (mortality), 4 weeks: 73
[2]; 8 weeks, soil concentration four times LD50, 25° C., 90% relative humidity, 80640 min
  Residual effect in soil (mortality), 8 weeks: 40
[2]; soil concentration four times LD50, housefly
  Residual Activity (weeks): 4-8 weeks
[3]
  Aphids, pesticidal activity rating: A
